In US7807162B2, “Single domain VHH antibodies against von Willebrand factor” (Ablynx N.V., priority 2005, dated 2010):
Where “and” joins values, the source holds several entries; their conditions need not be identical. Equal values may be shown once. Each block holds one compound with its values, some of them ahead of it.

What was measured:
[1] = system: ADAMTS-13; assay: Cleavage of recombinant A1-A2-A3 vWF fragment by ADAMTS-13 (Western Blot); type: biochemical, human; conditions: control; EDTA in NPP
Method: In a second type of experiment, different reaction mixtures were prepared as summarized in table 60, however, without the addition of the A1A2A3 construct. The A1A2A3 construct is a recombinant fragment consisting out of the A1, A2 and A3 domain of vWF. Mixtures were pre-incubated for 5 minutes at 37° C. after which the A1A2A3 fragment is added and the mixture is incubated in a waterbath overnight at 37° C. […] The blot was blocked for 2 hours at room temperature with blockbuffer (1:1 Odyssey blockbuffer in 1×TBS pH=7.4) and incubated with Rabbit polyclonal anti-vWF (DAKO). Alexa Fluor 680 goat anti-rabbit was used for detection. Scanning was done on the ODYSSEY to detect the degradation products.
In a second assay, a recombinant fragment containing the A1-A2-A3 domain of vWF was mixed with normal pool plasma (NPP) containing ADAMTS-13, resulting in proteolytic cleavage of the fragment which was observed by a Western Blot analysis.

[2] = system: cyclic flow reductions (CFRs) in injured, stenosed femoral artery; assay: Use of vWF as an antidote for ALX-0081 in the baboon Folts model; type: in vivo, baboon (Papio ursinus)
Description: The experimental procedure followed the original Folts model with the modifications as described in the previous example 18.
Healthy male baboons (Papio ursinus) were used in this study. The animals were 9-12 kg of weight and were disease-free for at least 2 weeks prior to use. The baboons were fed with dry standard food only.

[3] = parameters: species or system baboon (Papio ursinus); conditions: in vivo
Method: The aPTT values observed during the Folts model studies are summarized. […] In these animals, aPTT values are prolonged from the 30-60 IU/kg dose on, as is also observed in patients. Heparin acts as an anticoagulant by forming a complex with antithrombin and catalyzing the inhibition of activated blood coagulation factors such as XIa, IXa, Xa and thrombin (factor IIa). These factors are all involved in the intrinsic coagulation cascade of which its functionality is measured in the aPTT test.

[4] = system: cyclic flow reductions (CFRs) in injured, stenosed femoral artery; assay: Folts thrombosis model in baboons: length/inhibition of cyclic flow reductions (CFRs); type: in vivo, baboon (Papio ursinus); conditions: for effective dose: Folts model
Method: The study protocol that was applied is the original Folts model and some modifications described below (Folts J D, et al, Circulation. 1976; 54:365-370). Healthy male or female baboons (Papio ursinus) were used. The animals were 8-17 kg of weight and were disease-free for at least 2 weeks prior to use. The baboons were fed with dry standard food only. The baboons were used at different time points. […] Animals were anaesthetized and body temperature is maintained at 37° C. with a heating table. A segment of a femoral artery was dissected free from surrounding tissue. A shunt was placed between the femoral vein and femoral artery to obtain high shear rates. The mean and phasic blood flow was recorded continuously throughout the experiment. Baseline flow was recorded for 20 minutes. […] A clamp was placed over the injured site to create an external stenosis. A gradual decline in blood flow due to platelet adhesion and aggregation was observed. When flow was reduced to zero, blood flow was restored by opening the clamp to dislodge the platelet-rich thrombus. This repetitive pattern of decreasing blood flow following mechanical restoration is referred to as cyclic flow reductions (CFRs). Additional endothelial injury was repeated if needed to finally obtain stable CFRs in these baboons. The number of times the thrombus needed to be dislodged determines the number of CFRs. FIG. 24 illustrates blood flow pattern during the Folts model in baboons. […] This procedure was repeated for several times with escalating doses of the test substance. The anti-thrombotic effect was quantified by comparing the length of CFRs before and after drug administration. When full inhibition of CFRs was observed, a new injury was applied in order to confirm that the inhibition was an effect of the treatment but not of a natural healing phenomenon.

[5] = PT during the Folts model; type: in vivo, baboon (Papio ursinus); conditions: 240 IU/kg dose
[6] = system: ristocetin-induced platelet aggregation; assay: Ristocetin-induced platelet aggregation (RIPA) ex vivo in blood of treated baboons; conditions: baboons 4-10; further +1 mg/kg Plavix on top of 5 mg/kg Aspegic + 60 IU/kg Heparin + 1 mg/kg Plavix
Method: Platelet aggregations were performed on a Chronolog whole blood and optical Aggregometer (Model 560CA, Chronolog, USA). PRP was prepared (collected on 0.38 mol/L citrate), by centrifuging the whole blood at 1200 rpm for 5 minutes. The upper fraction containing the PRP was carefully removed. The lower fraction was further centrifuged at 3000 rpm for 10 minutes to prepare platelet poor plasma (PPP). Platelets were counted in PRP and diluted in PPP to a final concentration of 200.000 platelets per microliter. 3 mg/ml ristocetin (DAKO) was added and aggregation was measured.
The GPIb-IX-V dependent platelet aggregation through vWF is measured using ristocetin as a modulator. The % aggregation is measured at each time point and at each dose.

[7] = system: cyclic flow reductions (CFRs) in injured, stenosed femoral artery; assay: Folts model in baboons: Aspegic-Heparin-Plavix combination with ALX-0081 on top; type: in vivo, baboon (Papio ursinus); conditions: combined with 5 mg/kg Aspirin and 60 IU/kg Heparin
Method: Extra Heparin was administered at different time points to sustain a certain level (aPTT should be at least doubled versus control). […] The anti-thrombotic effect was quantified by comparing the length of CFRs before and after drug administration. When full inhibition of CFRs was observed, a new injury was applied. Epinephrin was injected and continued till the end of the experiment. […] (1), 3, 10 or 30 μg/kg. […] The specifications of the baboons that were used in this study are represented in table 49.

[8] = Bleeding analysis in Folts baboons (blood loss in gauzes); conditions: for therapeutic window in the Folts model: antithrombotic effect versus blood loss; for Average of total blood loss: sum of blood loss from the first five doses of test compound, relative to the second control gauze
Method: To analyze bleeding, an incision was made with a scalpel in the groin. This was done at 15 minutes after recording baseline flow, when the injury was made in the artery. Gauzes were inserted in the wound and replaced every 30 minutes just before each new dose of test compound. The amount of blood loss after each dose of test compound was determined by weighing the gauzes.

[9] = new injury applied at full inhibition of CFRs
[10] = number of experiments with inhibition / total number of independent repeats
[11] = Plavix final dose 2.5 mg/kg, individual baboons 9-12, 2.5 mg/kg

Compound: O=C(O)CN(CCN(CC(=O)O)CC(=O)O)CC(=O)O [EDTA]
effect on the cleavage of the A1-A2-A3 vWF fragment by ADAMTS-13 [1]: inhibition of cleavage of the fragment

Compound: vWF: vWF evaluated as an antidote for ALX-0081
reversal of the activity of ALX-0081 on CFRs ([2]; CFRs returned after 250 IU plus extra 250 IU of vWF): can be reversed by administration of vWF | Length of CFRs ([2]; second 250 IU vWF after 30 μg/kg + 45 μg/kg/hour ALX-0081, baboons 1-3): 246 s and 256 s and 230 s

dose from which aPTT values are prolonged [3]: 30-60 IU/kg | effect on the PT time [5]: minor increase in PT
Compound: Heparin
Length of CFRs ([4]; Heparin final dose 15 IU/kg, individual baboons 6, 7, 8): 630 s and 208 s and 255 s | Length of CFRs ([4]; Heparin final dose 30 IU/kg, individual baboons 6, 7, 8): 355 s and 241 s and 320 s | Length of CFRs ([4]; Heparin final dose 60 IU/kg, individual baboons 6, 7, 8): 432 s and 246 s and 332 s | Length of CFRs ([4]; Heparin final dose 120 IU/kg, individual baboons 6, 7, 8): 610 s and 160 s and 206 s | Length of CFRs ([4]; Heparin final dose 240 IU/kg, individual baboons 6, 7, 8): >1800 s and 221 s and 169 s | Length of CFRs ([4]; Heparin-treated, after Epinephrin, baboons 6, 7): 109 s and 65 s | dose at which full inhibition of CFRs was obtained ([4]; baboon 6, first dose): 15 IU/kg | CFRs upon a new injury ([4]; baboon 6, highest dose of 240 IU/kg): CFRs were inhibited even after a new injury | Inhibition of CFRs ([4]; baboons 7 and 8, doses as high as 240 IU/kg): no inhibition of the CFRs could be obtained | CFRs upon a new injury [4, 9]: the CFRs returned each time | Inhibition of CFRs [4, 10]: 1/3 | Inhibition of CFRs after administration of Epinephrin [4, 10]: 0/2 | Inhibition of CFRs after new injury [4, 10]: 1/3

Blood loss relative to the second control gauze, Average ([8]; Plavix final dose 1 mg/kg): 1.4 | Blood loss relative to the second control gauze ([8]; Plavix final dose 1 mg/kg, individual baboons 9-12, 1 mg/kg): 0.6 and 1.3 and 1.6 and 1.2 | Blood loss relative to the second control gauze, Average ([8]; Plavix final dose 2.5 mg/kg): 1.2 | Blood loss relative to the second control gauze [8, 11]: 1.5 and 1.4 and 1.1 and 1.0 | Blood loss relative to the second control gauze, Average ([8]; Plavix final dose 5 mg/kg): 4.5 | Blood loss relative to the second control gauze ([8]; Plavix final dose 5 mg/kg, individual baboons 9-12, 5 mg/kg): 5.1 and 4.7 and 1.4 and 6.6 | Blood loss relative to the second control gauze, Average ([8]; Plavix final dose 10 mg/kg): 7.6 | Blood loss relative to the second control gauze ([8]; Plavix final dose 10 mg/kg, individual baboons 9-12, 10 mg/kg): 6.5 and 4.5 and 5.8 and 13.6 | Blood loss relative to the second control gauze, Average ([8]; Plavix final dose 20 mg/kg): 4.9 | Blood loss relative to the second control gauze ([8]; Plavix final dose 20 mg/kg, individual baboons 9-12, 20 mg/kg): 3.7 and 4.1 and 9.1 and 2.6 | Blood loss relative to the second control gauze ([8]; at the highest dose): up to 9 fold | Average of total blood loss [8]: 19.4
Compound: COC(=O)[C@H](c1ccccc1Cl)N1CCc2sccc2C1 [Plavix]
% ristocetin-induced platelet aggregation [6]: 42% and 63% and 66% and 83% and 59% and 76% and 60% | dose of Plavix required for full inhibition, fold lower than Plavix alone [7]: 2.5 fold | time after injection at which the inhibitory effect on CFR length started ([4]; 2.5 mg/kg final dose): 10 min | effective dose [4]: 5 mg/kg | effective dose ([4]; inhibition of CFRs): 5 mg/kg | Length of CFRs ([4]; Plavix final dose 1 mg/kg, individual baboons 9, 11, 12, 1 mg/kg): 189 s and 132 s and 179 s | Length of CFRs [4, 11]: 883 s and 400 s and 258 s and >1800 s | Length of CFRs ([4]; Plavix final dose 5 mg/kg, individual baboons 9-12): >1800 s | Length of CFRs ([4]; Plavix final dose 10 mg/kg, individual baboons 9-12): >1800 s | Length of CFRs ([4]; Plavix final dose 20 mg/kg, individual baboons 9-12): >1800 s | Length of CFRs ([4]; Plavix-treated, after Epinephrin, individual baboons 9-12): 241 s and 91 s and 83 s and 66 s | final dose at which full inhibition of CFRs was obtained ([4]; baboon 12): 2.5 mg/kg | CFRs upon a new injury [4, 9]: CFRs remained inhibited | Inhibition of CFRs [4, 10]: 4/4 | Inhibition of CFRs after administration of Epinephrin [4, 10]: 0/4 | Inhibition of CFRs after new injury [4, 10]: 4/4 | final dose at which full inhibition of CFRs was obtained ([4]; the other three baboons): 5 mg/kg | therapeutic window in the Folts model [8]: much more narrow

Compound: Reopro: drug currently used in the clinic, comparator in the Folts model
effective dose [4]: 0.25 mg/kg | effective dose ([4]; inhibition of CFRs, final dose, ALX-0081: + […] dose/kg/hour): 0.17 to 0.42 mg/kg | Length of CFRs ([4]; Reopro final dose 20 μg/kg, individual baboons 13, 14, 15): 98 s and 82 s and 254 s | Length of CFRs ([4]; Reopro final dose 70 μg/kg, individual baboons 13, 14, 15): 90 s (2×) and 248 s | Length of CFRs ([4]; Reopro final dose 170 μg/kg, individual baboons 13, 14, 15): 90 s and >1800 s (2×) | Length of CFRs ([4]; Reopro final dose 420 μg/kg, individual baboons 13, 14, 15): >1800 s | Length of CFRs ([4]; Reopro final dose 920 μg/kg, individual baboons 13, 14, 15): >1800 s | Length of CFRs ([4]; Reopro-treated, after Epinephrin, individual baboons 13, 14, 15): >1200 s | final dose needed for full inhibition of the CFRs ([4]; baboons 13, 14 and 15, bolus injection only): 0.17 to 0.42 mg/kg | CFRs upon a new injury [4, 9]: complete inhibition of the CFRs was retained | Inhibition of CFRs [4, 10]: 3/3 | Inhibition of CFRs after administration of Epinephrin [4, 10]: 3/3 | Inhibition of CFRs after new injury [4, 10]: 3/3 | therapeutic window in the Folts model [8]: much more narrow | Average of total blood loss [8]: 44
